Results as given in patent US12371432B2, “Haloallylamine compounds and application thereof” (TransThera Sciences (Nanjing), Inc., priority 2019, dated 2025).
Counter-ions that a name gives are not always drawn.

Experiments:
Type in all cases: biochemical
rhVAP-1 [1] = biological target: T1, rhVAP-1 (Homo sapiens, UniProt Q16853); test: Inhibitory activity against rhVAP-1 enzyme (Biological Example 2); conditions: Table 2; benzylamine substrate, Amplex Red/HRP
T1 construct: purchased PeproTech
T1 sequence (Q16853 27-763 limits assumed): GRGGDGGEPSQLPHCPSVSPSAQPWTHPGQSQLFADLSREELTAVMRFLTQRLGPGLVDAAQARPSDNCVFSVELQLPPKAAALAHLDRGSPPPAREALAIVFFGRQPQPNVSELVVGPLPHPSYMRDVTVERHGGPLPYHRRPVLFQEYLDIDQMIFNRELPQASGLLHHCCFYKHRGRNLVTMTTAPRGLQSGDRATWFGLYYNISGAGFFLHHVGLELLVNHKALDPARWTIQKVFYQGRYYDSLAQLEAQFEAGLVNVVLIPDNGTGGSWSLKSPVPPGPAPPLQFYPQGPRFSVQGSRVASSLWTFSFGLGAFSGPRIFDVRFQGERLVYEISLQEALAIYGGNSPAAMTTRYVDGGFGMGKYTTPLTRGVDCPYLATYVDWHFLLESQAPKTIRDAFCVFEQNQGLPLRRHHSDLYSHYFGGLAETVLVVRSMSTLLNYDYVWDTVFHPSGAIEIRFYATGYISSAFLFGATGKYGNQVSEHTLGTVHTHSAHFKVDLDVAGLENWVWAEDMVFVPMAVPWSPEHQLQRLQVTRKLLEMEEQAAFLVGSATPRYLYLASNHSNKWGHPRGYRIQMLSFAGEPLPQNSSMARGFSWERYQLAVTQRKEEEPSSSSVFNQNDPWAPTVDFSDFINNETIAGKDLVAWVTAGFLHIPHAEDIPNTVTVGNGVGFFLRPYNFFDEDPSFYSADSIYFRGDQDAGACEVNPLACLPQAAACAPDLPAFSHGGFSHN
Procedure: (§1) 1. Inhibitory Activity of Compounds Against rhVAP-1 Enzyme
(§2) (1) Instrument, Consumable and Reagent
Microplate reader (Perkin Elmer, Nivo 5S), black unclear-bottom 96-well plate (Corning) and rhVAP-1 (PeproTech)
(§3) (2) Preparation of Concentration Gradient Compound Solutions
(§4) An appropriate amount of the compound to be tested was taken, dissolved in DMSO to 10 mM and then stored. Before the study, an appropriate amount of mother liquor of the 10 mM compound to be tested was taken and gradiently diluted 3-fold with DMSO, 10 concentration gradients in total. Each concentration gradient was then diluted 100-fold with 0.1 M of PBS.
(§5) (3) Preparation of Enzyme Solutions
(§6) An appropriate amount of protein diluent was added into rhVAP-1 powder, obtaining 1 mg/mL of mother liquor for storage. Before the study, PBS was used to carry out dilution to obtain enzyme solutions of 4× concentrations.
(§7) (4) Preparation of Substrate Mixtures of 2× Concentrations
(§8) An appropriate amount of benzylamine was weighed and dissolved with PBS to obtain 200 mM of benzylamine solution. The benzylamine solution was added with 2 mM of Amplex Red mother liquor and 500 U/mL of HRP mother liquor and diluted with PBS to obtain substrate mixtures of 2× concentrations.
10 μL compound solutions of different concentrations, 25 μL rhVAP-1 enzyme solutions of 4× concentrations and 15 μL of PBS were first added into a 96-well plate, shaken to be mixed uniformly and then incubated at 37° C. for 30 min. 50 μL substrate mixtures of 2× concentrations were then added into each well, and the microplate reader was immediately used to perform detection with 580 nm (20 nm) exciting light and 620 nm (10 nm) emission light for 5 min each time, 30 min in total. The inhibition rate was calculated according to the following formula: V (RFU/min)=(Ft (RFU)−F0 (RFU))/(time(min)) Inhibition rate (%)=100%−Vcmpd (RFU/min)/Vmax (RFU/min)×100%
V: fluorescence change rate; Ft: fluorescence reading at time point t; F0: initial fluorescence reading; Time: duration t; Vcmpd: fluorescence change rate of tested compound; Vmax: Max hole fluorescence change rate.
(6) Fitting of Dose-Response Curve
(§9) With the log value of concentration as the X axis and the percent inhibition rate as the Y axis, the log (inhibitor) vs. response-variable slope of analysis software GraphPad Prism 5 was used to fit a dose-response curve, thus obtaining the IC50 value of activity of each compound against the enzyme.

MAO-A = biological target: T2, MAO-A (Homo sapiens, UniProt P21397); test: Selectivity against MAO-A enzyme (MAO-Glo)
T2 construct: purchased Active Motif
T2 sequence (P21397 1-527): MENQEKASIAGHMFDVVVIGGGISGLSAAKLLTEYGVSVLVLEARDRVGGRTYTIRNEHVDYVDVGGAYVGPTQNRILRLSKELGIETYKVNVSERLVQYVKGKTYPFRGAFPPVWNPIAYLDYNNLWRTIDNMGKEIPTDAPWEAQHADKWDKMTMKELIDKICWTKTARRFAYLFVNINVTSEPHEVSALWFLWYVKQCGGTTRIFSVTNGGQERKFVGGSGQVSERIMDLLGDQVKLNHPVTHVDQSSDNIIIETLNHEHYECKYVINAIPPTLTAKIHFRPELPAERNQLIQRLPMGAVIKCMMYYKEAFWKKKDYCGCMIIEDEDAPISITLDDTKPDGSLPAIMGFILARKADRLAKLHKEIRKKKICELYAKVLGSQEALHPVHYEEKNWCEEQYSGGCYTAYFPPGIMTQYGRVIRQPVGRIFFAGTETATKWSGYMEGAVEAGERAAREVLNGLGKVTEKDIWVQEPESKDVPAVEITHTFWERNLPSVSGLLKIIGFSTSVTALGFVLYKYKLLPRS
Procedure: as §2
(§10) Microplate reader (Perkin Elmer, EnVision), 384-well plate (Perkin Elmer), centrifuge (Eppendorf), MAO-Glo™ (Promega), MAO-A (Active Motif) and MAO-B (Active Motif).
as §3
(§11) An appropriate amount of the compound to be tested was taken, dissolved in DMSO to 10 mM and then stored. The solution was then gradiently diluted 4-fold with DMSO, 6 concentration gradients in total.
as §5
(§12) MAO-A/B mother liquor was diluted with the experimental buffer for MAO-A/B to obtain enzyme solutions of 2× concentrations.
as §7
(§13) The mother liquor of MAO-A/B substrate mixture was diluted with the experimental buffer for MAO-A/B to obtain substrate mixtures of 2× concentrations.
(§14) 200 nL compound solutions or solvents of different concentrations and 10 μL MAO-A/B enzyme solutions of 2× concentrations were added into a 384-well plate, centrifuged at 1,000 rpm for 60 s, shaken to be mixed uniformly and then incubated at room temperature for 15 min. 10 μL substrate mixtures of 2× concentrations were then added into each well, and reaction was initiated. The 384-well plate was centrifuged at 1,000 rpm for 60 s, shaken for a uniform mixing and then incubated at room temperature for 60 min. 20 μL of test stop solution was added to stop reaction. Centrifugation was performed at 1,000 rpm for 60 s, and shaking was performed for uniform mixing. After 30 min of standing, the microplate reader was used to perform reading.
(§15) The inhibition rate was calculated according to the following formula: Inhibition rate (%)=(Signal_Max-Signal_sample)/(Signal_Max-Signal_min)×100 (6) Fitting of Dose-Response Curve
as §9

MAO-B = biological target: T3, MAO-B (Homo sapiens, UniProt P27338); test: Selectivity against MAO-B enzyme (MAO-Glo)
T3 construct: purchased Active Motif
T3 sequence (P27338 1-520): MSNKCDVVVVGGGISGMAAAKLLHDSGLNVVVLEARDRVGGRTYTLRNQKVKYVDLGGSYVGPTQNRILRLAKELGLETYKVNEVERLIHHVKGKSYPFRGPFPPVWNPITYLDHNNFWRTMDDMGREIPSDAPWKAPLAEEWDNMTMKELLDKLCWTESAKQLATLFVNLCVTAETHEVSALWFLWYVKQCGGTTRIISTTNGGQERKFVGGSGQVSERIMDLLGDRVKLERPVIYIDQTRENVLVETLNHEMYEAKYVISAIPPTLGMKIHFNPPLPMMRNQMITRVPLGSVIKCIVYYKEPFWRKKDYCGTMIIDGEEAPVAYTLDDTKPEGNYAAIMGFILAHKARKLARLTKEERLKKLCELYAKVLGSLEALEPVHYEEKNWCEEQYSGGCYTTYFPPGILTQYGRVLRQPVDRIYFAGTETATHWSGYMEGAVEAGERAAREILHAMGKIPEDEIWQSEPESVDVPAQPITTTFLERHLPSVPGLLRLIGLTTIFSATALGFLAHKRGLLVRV
Procedure: as §2, §10, §3, §11, §5, §12, §7, §13, §14, §15, §9

rhVAP-1 [2] = biological target: T1, rhVAP-1; test: Inhibitory activity against rhVAP-1 enzyme (Biological Example 1); conditions: Table 1; benzylamine substrate, Amplex Red/HRP
Procedure: as §1, §2
Multifunctional microplate reader (MD, FlexStation3), black unclear-bottom 96-well plate (Corning), and rhVAP-1 (PeproTech)
as §3
An appropriate amount of the compound to be tested was taken, dissolved in DMSO to 10 mM and then stored. Before the study, an appropriate amount of mother liquor of the 10 mM compound to be tested was diluted with DMSO, so that 1 mM solution was obtained. The solution was then gradiently diluted 3-fold with DMSO, 10 concentration gradients in total. PBS was then used to carry out 100-fold dilution, so that compound solutions of 10× series of concentrations were prepared.
as §5, §6, §7, §8
10 μL compound solutions of different concentrations, 25 μL rhVAP-1 enzyme solutions of 4× concentrations and 15 μL of PBS were first added into a 96-well plate, shaken to be mixed uniformly and then incubated at 37° C. for 30 min. 50 μL substrate mixtures of 2× concentrations were then added into each well, and the microplate reader was immediately used to detect fluorescence intensity of each well with 565 nm exciting light and 590 nm emission light for 5 min each time, 25 min in total. […]
(§16) V: fluorescence change rate; Ft: fluorescence reading at time point t; F0: initial fluorescence reading; Time: duration t; Vcmpd: fluorescence change rate of tested compound; Vmax: Max hole fluorescence change rate. […]

rhAOC1 = biological target: T4, rhAOC1 (Homo sapiens, UniProt P19801); test: Selectivity against rhAOC1 enzyme (Biological Example 1); conditions: Table 1; histamine substrate, Amplex Red/HRP
T4 construct: purchased R&D
T4 sequence (P19801 20-751): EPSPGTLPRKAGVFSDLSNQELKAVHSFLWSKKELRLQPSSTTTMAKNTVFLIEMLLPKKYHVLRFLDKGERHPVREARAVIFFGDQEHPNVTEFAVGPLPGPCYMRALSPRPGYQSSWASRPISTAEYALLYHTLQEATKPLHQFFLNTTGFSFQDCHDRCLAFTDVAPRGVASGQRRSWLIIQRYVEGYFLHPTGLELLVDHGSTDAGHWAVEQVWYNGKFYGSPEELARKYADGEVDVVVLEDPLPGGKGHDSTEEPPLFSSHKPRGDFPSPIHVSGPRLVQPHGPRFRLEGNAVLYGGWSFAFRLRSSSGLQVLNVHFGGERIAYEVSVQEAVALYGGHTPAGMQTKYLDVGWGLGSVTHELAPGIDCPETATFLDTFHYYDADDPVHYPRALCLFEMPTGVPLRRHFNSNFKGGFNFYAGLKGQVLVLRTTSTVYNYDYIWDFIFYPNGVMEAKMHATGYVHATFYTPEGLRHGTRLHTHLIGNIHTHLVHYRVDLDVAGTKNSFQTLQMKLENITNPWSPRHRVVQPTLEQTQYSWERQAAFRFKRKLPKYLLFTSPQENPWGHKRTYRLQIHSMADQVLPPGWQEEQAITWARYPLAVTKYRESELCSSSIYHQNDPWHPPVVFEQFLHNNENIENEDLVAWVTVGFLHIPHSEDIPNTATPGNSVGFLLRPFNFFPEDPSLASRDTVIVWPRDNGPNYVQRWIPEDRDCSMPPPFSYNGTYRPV
Procedure: 2. Selectivity of Compounds Against rhAOC1 Enzyme
as §2
Microplate reader (Perkin Elmer, Nivo 5S), black unclear-bottom 96-well plate (Corning) and rhAOC1 (R&D)
as §3
as §4, with “10-fold” for “100-fold”
as §5
An appropriate amount of rhAOC1 mother liquor with a concentration of 0.441 mg/mL was taken and diluted with an appropriate amount of 50 mM HEPES buffer solution to obtain enzyme solutions of 4× concentrations.
as §7
as §8, with “histamine” for “benzylamine”, “50 mM of HEPES buffer solution” for “PBS”, “20” for “200”
10 μL compound solutions of different concentrations, 25 μL rhAOC1 enzyme solutions of 4× concentrations and 15 μL of 50 mM HEPES buffer solution were first added into a 96-well plate, shaken to be mixed uniformly and then incubated at 37° C. for 30 min. 50 μL substrate mixtures of 2× concentrations were then added into each well, and the microplate reader was immediately used to detect fluorescence intensity of each well with 580 nm (20 nm) exciting light and 620 nm (10 nm) emission light for 5 min each time, 30 min in total. […]
as §16

IC50 (rhVAP-1 [1]) | IC50 (MAO-A) | IC50 (MAO-B) | IC50 (rhVAP-1 [2]) | IC50 (rhAOC1) | Structure (SMILES)
0.008 µM | > 100 µM | > 100 µM | – | – | CC(C)(C)CN1CCc2nn(C/C(=C/F)CN)cc2C1=O [Compound A37 hydrochloride, (E)-2-(2-(aminomethyl)-3-fluoroallyl)-5-neopentyl-2,5,6,7-tetrahydro-4H-pyrazolo[4,3-c]pyridin-4-one]
– | – | – | 0.079 µM | 26.9 µM | NC/C(=C\F)Cn1ccc2cc(C(=O)N3CCOCC3)ccc21 [Compound C1, (E)-(1-(2-(aminomethyl)-3-fluoroallyl)-1H-indol-5-yl)(morpholino)methanone]
0.013 µM | 77.4 µM | 88.9 µM | – | – | NC/C(=C\F)Cn1ncc2c(=O)n(C3CC3)ccc21 [Compound A44 hydrochloride, (E)-1-(2-(aminomethyl)-3-fluoroallyl)-5-cyclopropyl-1,5-dihydro-4H-pyrazolo[4,3-c]pyridin-4-one]
